Structures are written as SMILES.

Chain of CXCR3 (A0A2K5UV19 entry or part of it): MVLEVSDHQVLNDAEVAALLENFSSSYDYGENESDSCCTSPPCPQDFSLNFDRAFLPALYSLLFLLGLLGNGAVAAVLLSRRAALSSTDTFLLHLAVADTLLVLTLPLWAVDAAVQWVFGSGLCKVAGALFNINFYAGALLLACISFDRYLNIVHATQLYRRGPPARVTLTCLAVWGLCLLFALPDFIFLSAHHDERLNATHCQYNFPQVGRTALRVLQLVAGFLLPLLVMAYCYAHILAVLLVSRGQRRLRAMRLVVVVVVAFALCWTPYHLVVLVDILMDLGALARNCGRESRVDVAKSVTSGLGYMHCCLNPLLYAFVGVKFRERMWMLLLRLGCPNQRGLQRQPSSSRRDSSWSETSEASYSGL

For the experiment, the target named is CXCR3 (Macaca fascicularis, UniProt A0A2K5UV19). Briefly: functional cellular assay measuring calcium flux in CXCR3 transfected cells (block of CXCR3/IP-10 interaction). In kind it is cell-based. The note with it: IP-10 induced intracellular calcium flux; Cyno-CHO cells stably expressing recombinant CXCR3 and G-alpha-16. The procedure:
Compounds are assessed for the ability to block the interaction of CXCR3 and IP-10 in a functional cellular assay measuring calcium flux in CXCR3 transfected cells.
Cyno-CHO cells, stably expressing recombinant CXCR3 and G-alpha-16 are grown in F12 medium (Mediatech #45000-360) supplemented with 10% (V/V) FBS (Mediatech #35-01500), 1% Geneticin (Invitrogen #10131-027) and 0.2% Zeocin (Invitrogen #R250-05). The cells are spun down and re-suspended in growth media to a concentration of 4.8 E5 cells/mL. 25 microL of cell suspension is added to each well of a BD-384-well TC treated plate, providing 12,000 cells/well. The plate is incubated at 37° C./5% CO2 overnight. On the day of the assay, the plates are removed, the media is flicked out and 25 microL of Ca-4 dye in assay buffer (HBSS, 10 mM HEPES ph 7.4), containing 2 mM probenacid is added to each well. The cell assay plates are then incubated at 37° C./5% CO2 for one hour.
Test compounds are dissolved in DMSO and diluted to 1.045 mM in DMSO. Just prior to assay, 2.75 microL of appropriately diluted test compound are added to each well of a 384 well plate containing 45 microL of HBSS buffer. After mixing, 5 microL of diluted compound are added to each well of the cell assay plate for a final assay concentration of 10 microM. The plate is incubated at room temperature for 15 min. 10 microL of IP-10 stock solution in HBSS (4× EC80 concentration) are added to each well of the cell assay plate except those cells reserved as blank wells containing buffer only. Intracellular calcium flux is recorded on the HAMAMTSU FDSS6000, using excitation at 480 nm and emission at 540 nm. Data are analyzed using Activity Base software.
In general, the preferred potency range (IC50) of compounds in the above assay is between 1 nM to 3 μM, and the most preferred potency range is 1 nM to 20 nM.
Broadly, the IC50 is the concentration that inhibits the measured activity by half. As to `Cc1nn(CC(=O)N2CCN(c3ncc(Cl)cc3NC(=O)c3cccc(C(F)(F)F)c3)CC2)c(C)c1Cl`, the IC50 was 7.2 nM.

As to `Cc1cc(C(=O)NCC(=O)N2CCN(c3ccccc3C(=O)Nc3cccnc3)CC2)nn1C` [1,5-Dimethyl-1H-pyrazole-3-carboxylic acid (2-oxo-2-{4-[2-(pyridin-3-ylcarbamoyl)-phenyl]-piperazin-1-yl}-ethyl)-amide], the IC50 came to 20 nM.

For the compound `Cn1cccc1C(=O)NCC(=O)N1CCN(c2ccccc2C(=O)Nc2cccnc2)CC1` [1-Methyl-1H-pyrrole-2-carboxylic acid (2-oxo-2-{4-[2-(pyridin-3-ylcarbamoyl)-phenyl]-piperazin-1-yl}-ethyl)-amide], the IC50 stood at 12 nM.

For the compound `Cn1cccc1C(=O)NCC(=O)N1CCN(c2ccccc2C(=O)Nc2ccncc2)CC1` [1-Methyl-1H-pyrrole-2-carboxylic acid (2-oxo-2-{4-[2-(pyridin-4-ylcarbamoyl)-phenyl]-piperazin-1-yl}-ethyl)-amide], the IC50 was determined as 4.2 nM.

On to `CN(CC(=O)N1CCN(c2ccccc2C(=O)Nc2ccncc2)CC1)C(=O)c1cccn1C` [1-Methyl-1H-pyrrole-2-carboxylic acid methyl-(2-oxo-2-{4-[2-(pyridin-4-ylcarbamoyl)-phenyl]-piperazin-1-yl}-ethyl)-amide], for which the IC50 was found to be 6.5 nM.

Turning to `COc1cccc(C(=O)NCC(=O)N2CCN(c3ccccc3C(=O)Nc3cccnc3)CC2)c1OC` [2,3-Dimethoxy-N-(2-oxo-2-{4-[2-(pyridin-3-ylcarbamoyl)-phenyl]-piperazin-1-yl}-ethyl)-benzamide], the IC50 was found to be 12.5 nM.

Take `COc1cccc(C(=O)NCC(=O)N2CCN(c3ccccc3C(=O)Nc3ccncc3)CC2)c1OC` [2,3-Dimethoxy-N-(2-oxo-2-{4-[2-(pyridin-4-ylcarbamoyl)-phenyl]-piperazin-1-yl}-ethyl)-benzamide]: the IC50 worked out at 3.7 nM.

Regarding `COc1cccc(C(=O)N(C)CC(=O)N2CCN(c3ccccc3C(=O)Nc3ccncc3)CC2)c1OC` [2,3-Dimethoxy-N-methyl-N-(2-oxo-2-{4-[2-(pyridin-4-ylcarbamoyl)-phenyl]-piperazin-1-yl}-ethyl)-benzamide], the IC50 was 15 nM.

Regarding `Cc1nc(C)c(C(=O)NCC(=O)N2CCN(c3ccccc3C(=O)Nc3cccnc3)CC2)s1` [2,4-Dimethyl-thiazole-5-carboxylic acid (2-oxo-2-{4-[2-(pyridin-3-ylcarbamoyl)-phenyl]-piperazin-1-yl}-ethyl)-amide], the IC50 is 13.9 nM.

Regarding `Cc1cc(C(=O)NCC(=O)N2CCN(c3ccccc3C(=O)Nc3ccncc3)CC2)n(C)n1` [2,5-Dimethyl-2H-pyrazole-3-carboxylic acid (2-oxo-2-{4-[2-(pyridin-4-ylcarbamoyl)-phenyl]-piperazin-1-yl}-ethyl)-amide], the IC50 came out at 5.4 nM.

Consider `CCn1nc(C)cc1C(=O)NCC(=O)N1CCN(c2ccccc2C(=O)Nc2cccnc2)CC1` [2-Ethyl-5-methyl-2H-pyrazole-3-carboxylic acid (2-oxo-2-{4-[2-(pyridin-3-ylcarbamoyl)-phenyl]-piperazin-1-yl}-ethyl)-amide], for which the half-maximal inhibitory concentration (IC50) was determined as 18 nM.

In the case of `O=C(Nc1ccncc1)c1ccccc1N1CCN(C(=O)Cc2n[nH]c3ccccc23)CC1` [2-[4-(2-1H-Indazol-3-yl-acetyl)-piperazin-1-yl]-N-pyridin-4-yl-benzamide], the IC50 was found to be 7.2 nM.

Consider `CS(=O)(=O)c1ccc(NC(=O)c2ccccc2N2CCN(C(=O)CN3CCc4cccnc43)CC2)cc1` [2-[4-(2-2,3-Dihydro-pyrrolo[2,3-b]pyridin-1-yl-acetyl)-piperazin-1-yl]-N-(4-methanesulfonyl-phenyl)-benzamide], for which the half-inhibitory concentration (IC50) worked out at 9.7 nM.

Turning to `O=C(Nc1cccnc1)c1ccccc1N1CCN(C(=O)CN2CCc3cccnc32)CC1` [2-[4-(2-2,3-Dihydro-pyrrolo[2,3-b]pyridin-1-yl-acetyl)-piperazin-1-yl]-N-pyridin-3-yl-benzamide], the IC50 was 10 nM.

Turning to `O=C(Nc1ccncc1)c1ccccc1N1CCN(C(=O)CN2CCc3cccnc32)CC1` [2-[4-(2-2,3-Dihydro-pyrrolo[2,3-b]pyridin-1-yl-acetyl)-piperazin-1-yl]-N-pyridin-4-yl-benzamide], the IC50 was found to be 9 nM.

Turning to `O=C(Nc1ccncc1)c1ccccc1N1CCN(C(=O)Cc2noc3ccccc23)CC1` [2-[4-(2-Benzo[d]isoxazol-3-yl-acetyl)-piperazin-1-yl]-N-pyridin-4-yl-benzamide], the IC50 was determined as 6.6 nM.

`O=C(Nc1ccncc1)c1ccccc1N1CCN(C(=O)Cc2coc3ccccc23)CC1` [2-[4-(2-Benzofuran-3-yl-acetyl)-piperazin-1-yl]-N-pyridin-4-yl-benzamide]: the half-maximal inhibitory concentration (IC50) was 10.3 nM.

`O=C(NCC(=O)N1CCN(c2ccccc2C(=O)Nc2cccnc2)CC1)c1ccccc1` [2-[4-(2-Benzoylamino-acetyl)-piperazin-1-yl]-N-pyridin-3-yl-benzamide]: the IC50 is 7.6 nM.

Regarding `O=C(Nc1ccncc1)c1ccccc1N1CCN(C(=O)Cc2cn3ccccc3n2)CC1` [2-[4-(2-Imidazo[1,2-a]pyridin-2-yl-acetyl)-piperazin-1-yl]-N-pyridin-4-yl-benzamide], the IC50 was determined as 16 nM.

As to `O=C(Nc1ccncc1)c1ccccc1N1CCN(C(=O)CNc2ccccc2)CC1` [2-[4-(2-Phenylamino-acetyl)-piperazin-1-yl]-N-pyridin-4-yl-benzamide], the concentration for half-maximal inhibition (IC50) is 19 nM.

For `O=C(Nc1ccc(C(F)(F)F)nc1)c1ccccc1N1CCN(C(=O)Cn2ccc3cccnc32)CC1` [2-[4-(2-Pyrrolo[2,3-b]pyridin-1-yl-acetyl)-piperazin-1-yl]-N-(6-trifluoromethyl-pyridin-3-yl)-benzamide], the IC50 is 6.9 nM.

`O=C(Nc1cnc2ccccc2c1)c1ccccc1N1CCN(C(=O)Cn2ccc3cccnc32)CC1` [2-[4-(2-Pyrrolo[2,3-b]pyridin-1-yl-acetyl)-piperazin-1-yl]-N-quinolin-3-yl-benzamide]: the IC50 is 8.4 nM.

Regarding `O=C(Nc1ccncc1)c1ccccc1N1CCN(C(=O)CN2C(=O)c3ccccc3C2=O)CC1` [2-{4-[2-(1,3-Dioxo-1,3-dihydro-isoindol-2-yl)-acetyl]-piperazin-1-yl}-N-pyridin-4-yl-benzamide], the IC50 turned out to be 6.1 nM.

In the case of `O=C(Nc1ccncc1)c1ccccc1N1CCN(C(=O)CN2Cc3ccccc3C2=O)CC1` [2-{4-[2-(1-Oxo-1,3-dihydro-isoindol-2-yl)-acetyl]-piperazin-1-yl}-N-pyridin-4-yl-benzamide], the half-inhibitory concentration (IC50) stood at 5.1 nM.

With `O=C(Nc1ccncc1)c1ccccc1N1CCN(C(=O)Cn2ncc3ccccc3c2=O)CC1` [2-{4-[2-(1-Oxo-1H-phthalazin-2-yl)-acetyl]-piperazin-1-yl}-N-pyridin-4-yl-benzamide], the IC50 is 6.1 nM.

For `Cc1cn(CC(=O)N2CCN(c3ccccc3C(=O)Nc3ccccc3)CC2)c(C)n1` [2-{4-[2-(2,4-Dimethyl-imidazol-1-yl)-acetyl]-piperazin-1-yl}-N-phenyl-benzamide], the half-inhibitory concentration (IC50) was 5 nM.

Turning to `Cc1nc(C)c(CC(=O)N2CCN(c3ccccc3C(=O)Nc3ccncc3)CC2)s1` [2-{4-[2-(2,4-Dimethyl-thiazol-5-yl)-acetyl]-piperazin-1-yl}-N-pyridin-4-yl-benzamide], the IC50 was 13 nM.

Take `Cc1nc(CC(=O)N2CCN(c3ccccc3C(=O)Nc3ccncc3)CC2)c(C)s1` [2-{4-[2-(2,5-Dimethyl-thiazol-4-yl)-acetyl]-piperazin-1-yl}-N-pyridin-4-yl-benzamide]: the IC50 was determined as 7 nM.

Regarding `Cc1nc2ccccc2c(=O)n1CC(=O)N1CCN(c2ccccc2C(=O)Nc2ccncc2)CC1` [2-{4-[2-(2-Methyl-4-oxo-4H-quinazolin-3-yl)-acetyl]-piperazin-1-yl}-N-pyridin-4-yl-benzamide], the IC50 was found to be 8.6 nM.

As to `O=C(Nc1ccnc(C(F)(F)F)c1)c1ccccc1N1CCN(C(=O)CN2CCCCC2=O)CC1` [2-{4-[2-(2-Oxo-piperidin-1-yl)-acetyl]-piperazin-1-yl}-N-(2-trifluoromethyl-pyridin-4-yl)-benzamide], the IC50 was 11 nM.

On to `O=C(Nc1ccc(C(F)(F)F)nc1)c1ccccc1N1CCN(C(=O)CN2CCCCC2=O)CC1` [2-{4-[2-(2-Oxo-piperidin-1-yl)-acetyl]-piperazin-1-yl}-N-(6-trifluoromethyl-pyridin-3-yl)-benzamide], for which the 50% inhibitory concentration (IC50) was 3 nM.

For the compound `O=C(Nc1ccnc(OCC(F)(F)F)c1)c1ccccc1N1CCN(C(=O)CN2CCCCC2=O)CC1` [2-{4-[2-(2-Oxo-piperidin-1-yl)-acetyl]-piperazin-1-yl}-N-[2-(2,2,2-trifluoro-ethoxy)-pyridin-4-yl]-benzamide], the IC50 turned out to be 7.8 nM.

As for `O=C(Nc1ccncc1)c1ccccc1N1CCN(C(=O)CN2CCCCC2=O)CC1` [2-{4-[2-(2-Oxo-piperidin-1-yl)-acetyl]-piperazin-1-yl}-N-pyridin-4-yl-benzamide], the IC50 stood at 7.4 nM.

For the origin of these results see patent publication US8362249B2, “CXCR3 receptor antagonists” (Boehringer Ingelheim International GmbH, priority 2009, dated 2013).
